Test results as given in the CheMixHub viscosity set.

Assay: xn = mol fraction of the nth substance listed
Conditions: 101 kPa

CCC(C)(C)O + O
298.15 K
Conditions | viscosity [mPa·s]
x2 = 0.0042 | 3.548
x2 = 0.0429 | 3.711
x2 = 0.0863 | 3.875
x2 = 0.124 | 3.987
x2 = 0.1654 | 4.122
x2 = 0.197 | 4.218
x2 = 0.214 | 4.269
x2 = 0.2583 | 4.388
x2 = 0.2775 | 4.443

Cn1cc[n+](CCC[n+]2ccccc2)c1.[Br-].[Br-] + O
viscosity [mPa·s]
Conditions | 293.15 K | 298.15 K | 303.15 K | 308.15 K | 313.15 K
x1 = 0.0003405 | 1.016 | 0.905 | 0.811 | 0.734 | 0.667
x1 = 0.0004322 | 1.019 | 0.907 | 0.814 | 0.737 | 0.669
x1 = 0.0005421 | 1.021 | 0.909 | 0.816 | 0.739 | 0.672
x1 = 0.000689 | 1.023 | 0.911 | 0.819 | 0.742 | 0.675
x1 = 0.0008251 | 1.032 | 0.918 | 0.827 | 0.744 | 0.678
x1 = 0.0009589 | 1.035 | 0.921 | 0.829 | 0.747 | 0.681
x1 = 0.001109 | 1.038 | 0.924 | 0.832 | 0.749 | 0.684
x1 = 0.00128 | 1.041 | 0.927 | 0.835 | 0.752 | 0.687
x1 = 0.001457 | 1.043 | 0.93 | 0.837 | 0.755 | 0.689
x1 = 0.001664 | 1.047 | 0.933 | 0.839 | 0.758 | 0.691
x1 = 0.001904 | 1.05 | 0.936 | 0.841 | 0.761 | 0.693
x1 = 0.002122 | 1.053 | 0.939 | 0.843 | 0.763 | 0.696
x1 = 0.002357 | 1.057 | 0.942 | 0.846 | 0.766 | 0.699
